Assay results from PubChem BioAssay AID179 (DTP/NCI, 2004).
Where “and” joins values, the source holds several entries; their conditions need not be identical. Identical values can stand only once. Calls of active or inactive are those of the source.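 How the source made its calls: active means compounds giving half or more protection of infected cells from virus-caused growth loss, again on retest; inactive means the rest.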 Where a SMILES comes first, the peptide text is derived from it.

Test system: CEM cells HIV-1 protection, formazan growth assay
Assay: NCI AIDS Antiviral Assay
Details: for IC50: measured here: growth of uninfected CEM cells
Method in brief: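 Screen of anti-HIV-1 activity in human CEM cells using a formazan-based growth measurement at five drug concentrations. Hits with 50% or greater protection were repeated, and confirmation required reproducible complete protection.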

SMILES | outcome | EC50 | IC50
O=S1Cc2ccccc2CSS1 (configuration not stated) | inactive | – | –
Cc1nc(C)c(N2CCN([N+](=O)[O-])CC2)c(=O)[nH]1 | – | > 200 µM | > 200 µM
O=C(O)c1ccc(CS(=O)c2ccc([N+](=O)[O-])cc2)c([N+](=O)[O-])c1 (configuration not stated) | – | > 708 µM | 501 µM
CC(=O)N1CC2(CN(C(C)=O)CC3(C1)OCCO3)OCCO2 | – | > 200 µM | > 200 µM
O=C1c2c(O)cc(O)cc2O[C@H](c2ccc(O)cc2)[C@H]1[C@@H]1C(=O)c2c(O)cc(O)cc2O[C@H]1c1ccc(O)cc1 | – | > 200 µM | 8.51 µM
CC1=C(C(=O)NNC(=O)c2ccccc2O)CC(C(=O)NNC(=O)c2ccccc2O)=C(C)N1 | – | > 200 µM | 1.66 µM
Cc1cn([C@H]2C[C@H](N=[N+]=[N-])[C@@H](COC(=O)CCC(=O)OC3CN(Cc4ccccc4)C(=O)N(Cc4ccccc4)C3)O2)c(=O)[nH]c1=O | – | 0.955 µM | 89.1 µM
CC[C@@H]1NC(C(=O)OC)Cc2c1[nH]c1ccccc21 (some centres not stated) | inactive | – | –
O=C(O)c1cc(N=Nc2cc(S(=O)(=O)O)c3cccnc3c2O)ccc1/C=C/c1ccc(N=Nc2cc(S(=O)(=O)O)c3cccnc3c2O)cc1C(=O)O | – | 4.27 µM and 21.4 µM | 61.7 µM and > 200 µM
O=c1oc(-c2ccccc2NS(=O)(=O)c2ccccc2)nc2cc(Cl)ccc12 | – | > 200 µM | 1.45 µM
COc1ccccc1C(=O)OCC1CCCN2CCCCC12 (configuration not stated) | – | > 200 µM | 27.5 µM
CC(=O)NC1C(OCc2ccccc2)OC(COC(=O)CCCCCCCCCCNC(=O)c2cccc3c(=O)c4ccccc4[nH]c23)C(O)C1OC(C)C(=O)NC(C)C(=O)NC(CCC(N)=O)C(N)=O (configuration not stated) | – | > 7.41 µM | > 7.41 µM
CN1C/C(=C\c2cccs2)C(O)/C(=C/c2cccs2)C1 (configuration not stated) | – | > 200 µM | 115 µM
O=S(=O)(O)CC(O)CNC(CO)(CO)CO (configuration not stated) | – | > 200 µM | > 200 µM
Nc1ccc(C(=O)N/C(=C\c2cccc([N+](=O)[O-])c2)c2nc3[nH]c(=S)[nH]c(=O)c3[nH]2)cc1 | inactive | – | –
COc1cc(/C=C/c2nc3ccccc3nc2/C=C/c2cc(OC)c(OC)c(OC)c2)cc(OC)c1OC | – | > 7.41 µM | > 7.41 µM
O=c1[nH]cnc2c1ncn2C1CCC2(CO)CC12 (configuration not stated) | – | > 50.1 µM | > 50.1 µM
CCOC(=O)C1(C#N)C2(C#N)C(N)=NC(ON=C(C)C)(ON=C(C)C)C12C#N (configuration not stated) | – | > 200 µM | > 200 µM
CC(C)CC(NC(=O)C(Cc1cnc[nH]1)NC(=O)C(CC(N)=O)NC(=O)C(NC(=O)C(CO)NC(=O)C(Cc1ccc(O)cc1)NC(=O)C(CO)NC(=O)C(C)N)C(C)O)C(=O)O (configuration not stated) (H-ASYSTNHL-OH; configuration not given here) | – | > 70.8 µM | > 70.8 µM

SMILES | outcome | EC50 | IC50
COc1ccc(-c2c(C3=NCCCN3)nnn2-c2ccc([N+](=O)[O-])cc2)cc1 | – | > 13.8 µM | > 13.8 µM
O=c1[nH]nc(-c2ccccc2)n1O | – | > 200 µM | > 200 µM
C[S+](C)c1ccc(Cl)cc1 | – | > 871 µM | 69.2 µM
CCOC(=O)/C(=C/c1ccc(OC)cc1)P(=O)(OCC)OCC | – | > 380 µM | 20.4 µM
N#C/C(N)=C(\C#N)NC=NCc1ccccc1 | – | > 200 µM | > 200 µM
O=C1c2ccc3cc(CCl)cc(O)c3c2C(=O)c2cccc(O)c21 | – | > 200 µM | 5.25 µM
COC(=O)C(Cc1ccccc1)C(=O)C(CC(=O)OC(C)(C)C)NC(=O)OC(C)(C)C (configuration not stated) | – | > 200 µM | > 200 µM
CN1C(=O)N(C)C(O)C(Cl)(Br)C1=O (configuration not stated) | – | > 200 µM | > 200 µM
COc1cc(/C=C/C=C2\CC/C(=C\C=C\c3ccc(O)c(OC)c3)C2=O)ccc1O | – | > 200 µM | 13.2 µM
NC(N)=NS(=O)(=O)c1ccc(Nc2c3ccccc3nc3c(C(=O)Nc4ccc(S(N)(=O)=O)cc4)ccc(Cl)c23)cc1 | – | > 41.7 µM | > 41.7 µM
Cc1nc(C(=O)O)c2ccccc2n1 | inactive | – | –
O=C(c1ccccc1)c1cc2c([nH]c1=O)CCCCCC2 | – | > 200 µM | > 200 µM
N#C/C(=C\c1ccccc1)c1ccc(F)cc1F | – | > 200 µM | 37.2 µM
CCN(CC)c1ccc(N=Cc2cc(=O)n(C)c3ccccc23)cc1 | – | > 200 µM | 3.72 µM
O=C(CCCl)N1CCN(C(=O)CCCl)c2c1c1ccccc1c1ccccc21 | – | > 200 µM | 3.02 µM
O=c1[nH]cnc2c1nnn2CCCCCCCCCCCCn1nnc2c(=O)[nH]cnc21 | – | > 200 µM | 24 µM
Cc1cc(=O)c(C#N)c2c(C#N)c(N)[nH]n12 | – | > 200 µM | > 200 µM
Cc1occc1C(=S)Nc1ccc(Cl)c(C(=O)OC(C)(C)C)c1 | – | 0.0339 µM | 9.33 µM
Nc1ncnc2oc(-c3cccs3)nc12 | – | > 200 µM | > 200 µM
